# Assay results as given in US7713937B2, “Synthetic peptide amides and dimeric forms thereof” (Cara Therapeutics, Inc., priority 2006, dated 2010).
# Square brackets hold non-standard residues; d marks the D form. Side chains are listed from the residue outwards. Peptide text beside a SMILES is read from it. * marks the point of attachment. Piperidinyl(4-(1-Pro-OH)) = O=C(O)[C@@H]1CCCN1C1CCN(*)CC1; Piperidin1yl(4-NH2,4-COOH) = NC1(C(=O)O)CCN(*)CC1; Homopiperazine(4-amidino) = N=C(N)N1CCCN(*)CC1; d(hArg) = N=C(N)NCCCC[C@@H](N)C(=O)O; dAgb = N=C(N)NCC[C@@H](N)C(=O)O; Homopiperazinyl = C1CNCCN(*)C1; dAgp = N=C(N)NC[C@@H](N)C(=O)O; dNle = CCCC[C@@H](N)C(=O)O; dDab = NCC[C@@H](N)C(=O)O; Api = NC1(C(=O)O)CCNCC1
# Tests used:
# [1] = target: T1, mouse kappa opioid receptor (mKOR) (Mus musculus, UniProt P33534); assay: cell-based; settings: for Emax: read-out: mKOR Efficacy(%)
# T1 construct: Stimulation of Endogenous Mouse Kappa-Opioid Receptor in R1.G1 Cells; host or cells: R1.G1 mouse thymoma cells
# [2] = target: T2, human kappa opioid receptor (hKOR) (Homo sapiens, UniProt P41145); assay: cell-based; settings: for Emax: HEK293, read-out: hKOR Efficacy(%)
# T2 construct: expressed in transfected cells; host or cells: HEK-293 cells, transient transfection with Fugene6
# T2 sequence (P41145 whole entry): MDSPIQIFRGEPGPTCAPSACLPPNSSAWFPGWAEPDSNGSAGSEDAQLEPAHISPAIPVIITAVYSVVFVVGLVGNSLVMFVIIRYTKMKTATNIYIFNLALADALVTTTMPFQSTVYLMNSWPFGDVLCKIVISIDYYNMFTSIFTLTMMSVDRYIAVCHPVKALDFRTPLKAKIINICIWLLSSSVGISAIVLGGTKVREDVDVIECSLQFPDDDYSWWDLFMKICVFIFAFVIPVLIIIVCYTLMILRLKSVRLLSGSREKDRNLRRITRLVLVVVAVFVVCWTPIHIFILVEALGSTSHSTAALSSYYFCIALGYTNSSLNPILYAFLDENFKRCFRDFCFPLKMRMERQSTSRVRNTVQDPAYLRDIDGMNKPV
# T1 sequence (P33534 whole entry): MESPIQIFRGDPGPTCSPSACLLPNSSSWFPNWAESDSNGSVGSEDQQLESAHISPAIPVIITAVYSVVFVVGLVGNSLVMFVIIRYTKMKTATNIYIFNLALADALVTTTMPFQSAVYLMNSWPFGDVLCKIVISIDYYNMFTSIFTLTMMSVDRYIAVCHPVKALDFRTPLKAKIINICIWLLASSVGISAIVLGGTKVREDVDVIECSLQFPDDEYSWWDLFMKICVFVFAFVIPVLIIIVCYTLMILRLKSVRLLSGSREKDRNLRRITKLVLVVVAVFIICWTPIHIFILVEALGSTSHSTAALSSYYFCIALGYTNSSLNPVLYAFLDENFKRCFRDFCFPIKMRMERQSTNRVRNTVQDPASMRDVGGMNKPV
Compound,EC50 [1] [pM],Emax [1] [%],EC50 [2] [pM],Emax [2] [%]
"CNCCCC[C@@H](NC(=O)[C@@H](CC(C)C)NC(=O)[C@@H](Cc1ccccc1)NC(=O)[C@H](N)Cc1ccccc1)C(=O)N1CCCN(C(=N)N)CC1 [Compound (1), D-Phe-D-Phe-D-Leu-(ε-Me)D-Lys-[4-amidinohomopiperazine amide]]",43,103,150,97
"CNCCCC[C@@H](NC(=O)[C@@H](CC(C)C)NC(=O)[C@@H](Cc1ccccc1)NC(=O)[C@H](N)Cc1ccccc1)C(=O)N1CCC(N)(C(=O)O)CC1 [Compound (3), D-Phe-D-Phe-D-Leu-(ε-Me)D-Lys-[ω(4-aminopiperidine-4-carboxylic acid)]-OH]",52,96,160,100
"CNCCCC[C@@H](NC(=O)[C@@H](CC(C)C)NC(=O)[C@@H](Cc1ccccc1)NC(=O)[C@H](N)Cc1ccccc1)C(=O)N1CCC(N2CCC[C@H]2C(=O)O)CC1 [Compound (6), D-Phe-D-Phe-D-Leu-(ε-Me)D-Lys-[N-(4-piperidinyl)-L-proline]-OH]",36,94,130,100
"CC(C)C[C@@H](NC(=O)[C@@H](Cc1ccccc1)NC(=O)[C@H](N)Cc1ccccc1)C(=O)N[C@H](CCCNC(=N)N)C(=O)N1CCCNCC1 [Compound (7), D-Phe-D-Phe-D-Leu-D-Arg-[homopiperazine amide]] (H-[dF][dF][dL][dR]-Homopiperazinyl)",12,98,110,100
"CC(C)C[C@@H](NC(=O)[C@@H](Cc1ccccc1)NC(=O)[C@H](N)Cc1ccccc1)C(=O)N[C@H](CCCCNC(=N)N)C(=O)N1CCC(N)(C(=O)O)CC1 [Compound (8), D-Phe-D-Phe-D-Leu-D-Har-[ω(4-aminopiperidine-4-carboxylic acid)]-OH] (H-[dF][dF][dL][d(hArg)]-{Piperidin1yl(4-NH2,4-COOH)})",43,90,120,96
"CC(C)C[C@@H](NC(=O)[C@@H](Cc1ccccc1)NC(=O)[C@H](N)Cc1ccccc1)C(=O)N[C@H](CCCCNC(C)C)C(=O)N1CCC(N)(C(=O)O)CC1 [Compound (9), D-Phe-D-Phe-D-Leu-(ε-iPr)D-Lys-[ω(4-aminopiperidine-4-carboxylic acid)]-OH]",78,96,170,90
"CC(C)C[C@@H](NC(=O)[C@@H](Cc1ccccc1)NC(=O)[C@H](N)Cc1ccccc1)C(=O)N[C@H](CNC(=N)N)C(=O)N1CCC(N)(C(=O)O)CC1 [Compound (10), D-Phe-D-Phe-D-Leu-(β-amidino)D-Dap-[ω(4-aminopiperidine-4-carboxylic acid)]-OH] (H-[dF][dF][dL][dAgp]-{Piperidin1yl(4-NH2,4-COOH)})",826,90,300,86
"CC(C)C[C@@H](NC(=O)[C@@H](Cc1ccccc1)NC(=O)[C@H](N)Cc1ccccc1)C(=O)N[C@H](CCNC(=N)N)C(=O)N1CCC(N)(C(=O)O)CC1 [Compound (11), D-Phe-D-Phe-D-Leu-D-Nar-[ω(4-aminopiperidine-4-carboxylic acid)]-OH] (H-[dF][dF][dL][dAgb]-{Piperidin1yl(4-NH2,4-COOH)})",52,92,150,82
"CC(C)C[C@@H](NC(=O)[C@@H](Cc1ccccc1)NC(=O)[C@H](N)Cc1ccccc1)C(=O)N[C@H](CCN)C(=O)N1CCC(N2CCC[C@H]2C(=O)O)CC1 [Compound (12), D-Phe-D-Phe-D-Leu-D-Dbu-[N-(4-piperidinyl)-L-proline]-OH] (H-[dF][dF][dL][dDab]-{Piperidinyl(4-(1-Pro-OH))})",55,89,170,
"CC(C)C[C@@H](NC(=O)[C@@H](Cc1ccccc1)NC(=O)[C@H](N)Cc1ccccc1)C(=O)N[C@H](CCNC(=N)N)C(=O)N1CCC(N2CCC[C@H]2C(=O)O)CC1 [Compound (13), D-Phe-D-Phe-D-Leu-D-Nar-[N-(4-piperidinyl)-L-proline]-OH] (H-[dF][dF][dL][dAgb]-{Piperidinyl(4-(1-Pro-OH))})",32,88,130,90
"CC(C)C[C@@H](NC(=O)[C@@H](Cc1ccccc1)NC(=O)[C@H](N)Cc1ccccc1)C(=O)N[C@H](CNC(=N)N)C(=O)N1CCC(N2CCC[C@H]2C(=O)O)CC1 [Compound (14), D-Phe-D-Phe-D-Leu-D-Dap(amidino)-[N-(4-piperidinyl)-L-proline]-OH] (H-[dF][dF][dL][dAgp]-{Piperidinyl(4-(1-Pro-OH))})",349,86,210,81
"CC(C)C[C@@H](NC(=O)[C@@H](Cc1ccccc1)NC(=O)[C@H](N)Cc1ccccc1)C(=O)N[C@H](CCCCN)C(=O)N1CCCN(C(=N)N)CC1 [Compound (15), D-Phe-D-Phe-D-Leu-D-Lys-[4-amidinohomopiperazine amide]]",28,92,110,92
"CC(C)C[C@@H](NC(=O)[C@@H](Cc1ccccc1)NC(=O)[C@H](N)Cc1ccccc1)C(=O)N[C@H](CCCCNC(=N)N)C(=O)N1CCCN(C(=N)N)CC1 [Compound (16), D-Phe-D-Phe-D-Leu-D-Har-[4-amidinohomopiperazine amide]] (H-[dF][dF][dL][d(hArg)]-{Homopiperazine(4-amidino)})",21,105,110,96
"CC(C)C[C@@H](NC(=O)[C@@H](Cc1ccccc1)NC(=O)[C@H](N)Cc1ccccc1)C(=O)N[C@H](CCCCNC(C)C)C(=O)N1CCCN(C(=N)N)CC1 [Compound (17), D-Phe-D-Phe-D-Leu-(ε-iPr)D-Lys-[4-Amidinohomopiperazine amide]]",39,103,100,102
"CC(C)C[C@@H](NC(=O)[C@@H](Cc1ccccc1)NC(=O)[C@H](N)Cc1ccccc1)C(=O)N[C@H](CNC(=N)N)C(=O)N1CCCN(C(=N)N)CC1 [Compound (18), D-Phe-D-Phe-D-Leu-(β-amidino)D-Dap-[4-amidinohomopiperazine amide]] (H-[dF][dF][dL][dAgp]-{Homopiperazine(4-amidino)})",1020,103,1150,93
"CCCC[C@@H](NC(=O)[C@@H](Cc1ccccc1)NC(=O)[C@H](N)Cc1ccccc1)C(=O)N[C@H](CNC(=N)N)C(=O)N1CCCN(C(=N)N)CC1 [Compound (19), D-Phe-D-Phe-D-Nle-(β-amidino)D-Dap-[4-amidinohomopiperazine amide]] (H-[dF][dF][dNle][dAgp]-{Homopiperazine(4-amidino)})",2150,99,,
"CCCC[C@@H](NC(=O)[C@@H](Cc1ccccc1)NC(=O)[C@H](N)Cc1ccccc1)C(=O)N[C@H](CCCNC(=N)N)C(=O)N1CCC[C@@H]1C(=O)O [Compound (40), D-Phe-D-Phe-D-Nle-D-Arg-D-Pro-OH] (H-[dF][dF][dNle][dR][dP]-OH)",9050,88,,
"CC(C)C[C@@H](NC(=O)[C@@H](Cc1ccccc1)NC(=O)[C@H](N)Cc1ccccc1)C(=O)N[C@H](CCCN)C(=O)N[C@H]1CN[C@H](C(=O)O)C1 [Compound (41), D-Phe-D-Phe-D-Leu-D-Orn-[(2S,4R)-4-amino-pyrrolidine-2-carboxylic acid]-OH]",50600,87,,
"CC(C)C[C@@H](NC(=O)[C@@H](Cc1ccccc1)NC(=O)[C@H](N)Cc1ccccc1)C(=O)N[C@H](CCCN)C(=O)N[C@@H]1CN[C@H](C(=O)O)C1 [Compound (42), D-Phe-D-Phe-D-Leu-D-Orn-[(2S,45)-4-amino-pyrrolidine-2-carboxylic acid]-OH]",3000,96,,
"CC(C)C[C@@H](NC(=O)[C@@H](Cc1ccccc1)NC(=O)[C@H](N)Cc1ccccc1)C(=O)N[C@H](CCCN)C(=O)NC1CCN(CC(N)=O)CC1 [Compound (51), D-Phe-D-Phe-D-Leu-D-Orn-[4-amino-1-carboxymethyl-piperidine]-NH2]",1970,93,,
CC(C)C[C@@H](NC(=O)[C@@H](Cc1ccccc1)NC(=O)[C@H](N)Cc1ccccc1)C(=O)N[C@H](CCCN)C(=O)NCCCC[C@@H](NC(=O)[C@H](N)CCCN)C(=O)O [Compound (82)],120,,,
CC(C)C[C@@H](N)C(=O)N[C@H](CCCN)C(=O)N[C@H](CCCCNC(=O)[C@@H](CCCN)NC(=O)[C@@H](CC(C)C)NC(=O)[C@@H](Cc1ccccc1)NC(=O)[C@H](N)Cc1ccccc1)C(=O)O [Compound (83)],50,91,,
CC(C)C[C@@H](NC(=O)[C@H](N)Cc1ccccc1)C(=O)N[C@H](CCCN)C(=O)N[C@H](CCCCNC(=O)[C@@H](CCCN)NC(=O)[C@@H](CC(C)C)NC(=O)[C@@H](Cc1ccccc1)NC(=O)[C@H](N)Cc1ccccc1)C(=O)O [Compound (84)],340,85,,
"CC(C)C[C@@H](NC(=O)[C@@H](Cc1ccccc1)NC(=O)[C@H](N)Cc1ccccc1)C(=O)N[C@H](CCCNC(C)C)C(=O)NC1(C(=O)O)CCN(C(=O)[C@@H](CCCNC(C)C)NC(=O)[C@@H](CC(C)C)NC(=O)[C@@H](Cc2ccccc2)NC(=O)[C@H](N)Cc2ccccc2)CC1 [Compound (86), 1N,4N-bis-[D-Phe-D-Phe-D-Leu-(iPr)D-Orn]-4-amino-4-carboxylic-piperidine]",56700,77,,
"CC(C)C[C@@H](NC(=O)[C@@H](Cc1ccccc1)NC(=O)[C@H](N)Cc1ccccc1)C(=O)N[C@H](CCNC(=N)N)C(=O)NC1(C(=O)O)CCN(C(=O)[C@@H](CCNC(=N)N)NC(=O)[C@@H](CC(C)C)NC(=O)[C@@H](Cc2ccccc2)NC(=O)[C@H](N)Cc2ccccc2)CC1 [Compound (88), 1N,4N-bis-(D-Phe-D-Phe-D-Leu-D-Nar)-4-amino-4-carboxylic piperidine] (H-[dF][dF][dL][dAgb][Api]([dAgb-dL-dF-dF])-OH)",13800,76,,
